Source: ChEMBL document CHEMBL3779850, “Synthesis, in vitro evaluation, and molecular modeling investigation of benzenesulfonimide peroxisome proliferator-activated receptors α antagonists” (Eur J Med Chem, 2016)
Activity calls are given as the source filed them. The calls are words filed in the database; no cut-off is given here.

What was measured:
[1] = molecular target: T1, Peroxisome proliferator-activated receptor alpha (Homo sapiens) (UniProt Q07869); test: Transactivation of PPARalpha (unknown origin) expressed in HEK293A cells at 150 uM after 16 to 18 hrs by luciferase reporter assay relative to control; type: cell-based; conditions: HEK293-A
T1 sequence (whole entry): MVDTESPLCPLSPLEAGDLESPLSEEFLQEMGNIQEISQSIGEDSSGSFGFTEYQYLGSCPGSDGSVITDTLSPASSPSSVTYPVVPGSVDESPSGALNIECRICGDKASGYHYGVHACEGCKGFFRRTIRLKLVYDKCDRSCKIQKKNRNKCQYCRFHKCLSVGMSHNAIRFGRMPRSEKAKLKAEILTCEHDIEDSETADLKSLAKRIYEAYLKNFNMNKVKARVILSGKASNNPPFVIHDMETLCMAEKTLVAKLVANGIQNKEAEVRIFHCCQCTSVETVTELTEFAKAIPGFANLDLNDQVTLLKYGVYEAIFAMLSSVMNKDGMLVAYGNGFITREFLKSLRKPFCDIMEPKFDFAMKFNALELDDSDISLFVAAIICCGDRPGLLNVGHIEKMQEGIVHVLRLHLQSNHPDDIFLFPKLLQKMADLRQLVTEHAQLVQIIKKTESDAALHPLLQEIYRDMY

[2] = molecular target: T2, Peroxisome proliferator-activated receptor gamma (Homo sapiens) (UniProt P37231); test: Antagonist activity at PPARgamma (unknown origin) expressed in HEK293A cells after 16 to 18 hrs by luciferase reporter assay; type: cell-based; conditions: HEK293-A
T2 sequence (whole entry): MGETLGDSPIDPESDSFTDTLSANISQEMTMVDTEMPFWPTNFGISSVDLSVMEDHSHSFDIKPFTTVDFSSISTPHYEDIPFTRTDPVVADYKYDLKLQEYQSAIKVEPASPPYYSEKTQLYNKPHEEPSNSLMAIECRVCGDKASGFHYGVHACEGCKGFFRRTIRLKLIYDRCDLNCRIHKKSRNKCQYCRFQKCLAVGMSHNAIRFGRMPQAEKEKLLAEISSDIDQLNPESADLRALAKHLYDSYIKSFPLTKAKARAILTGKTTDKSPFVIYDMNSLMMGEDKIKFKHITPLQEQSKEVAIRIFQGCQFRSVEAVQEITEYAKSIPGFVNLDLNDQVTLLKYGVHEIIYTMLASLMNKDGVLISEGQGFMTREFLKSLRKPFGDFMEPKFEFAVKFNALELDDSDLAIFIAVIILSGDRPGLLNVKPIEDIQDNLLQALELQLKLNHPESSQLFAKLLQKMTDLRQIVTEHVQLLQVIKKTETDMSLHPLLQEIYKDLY

[3] = molecular target: T3, Peroxisome proliferator-activated receptor alpha (Homo sapiens, UniProt Q07869); test: Antagonist activity at PPARalpha (unknown origin) expressed in HEK293A cells assessed as inhibition of GW7647-induced transactivation after 16 to 18 hrs by luciferase reporter assay; type: cell-based, HEK293-A
T3 sequence (Q07869 whole entry): T1 sequence (whole entry)

[4] = molecular target: T4, Peroxisome proliferator-activated receptor delta (Homo sapiens) (UniProt Q03181); test: Transactivation of PPARdelta (unknown origin) expressed in HEK293A cells after 16 to 18 hrs by luciferase reporter assay; type: cell-based; conditions: HEK293-A
T4 sequence (whole entry): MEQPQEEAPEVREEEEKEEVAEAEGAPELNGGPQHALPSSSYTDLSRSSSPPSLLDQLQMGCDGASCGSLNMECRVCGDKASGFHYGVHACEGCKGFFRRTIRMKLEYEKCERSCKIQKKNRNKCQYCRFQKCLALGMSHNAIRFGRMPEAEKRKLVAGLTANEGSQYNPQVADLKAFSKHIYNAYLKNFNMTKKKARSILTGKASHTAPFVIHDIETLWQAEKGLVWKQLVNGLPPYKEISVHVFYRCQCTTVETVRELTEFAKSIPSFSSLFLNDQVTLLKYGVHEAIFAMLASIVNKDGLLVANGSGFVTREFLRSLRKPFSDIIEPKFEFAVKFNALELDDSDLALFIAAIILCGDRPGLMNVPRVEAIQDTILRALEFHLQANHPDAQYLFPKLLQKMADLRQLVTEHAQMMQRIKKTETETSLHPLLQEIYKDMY

[5] = molecular target: T1, Peroxisome proliferator-activated receptor alpha (Homo sapiens); test: Transactivation of PPARalpha in human HepG2 cells assessed as increase in CPT1 mRNA expression at 150 uM after 48 hrs by RT-PCR method; type: cell-based
[6] = molecular target: T1, Peroxisome proliferator-activated receptor alpha (Homo sapiens); test: Antagonist activity at PPARalpha in human HepG2 cells assessed as inhibition of GW7647-induced CPT1 mRNA expression at 150 uM after 48 hrs by RT-PCR method; type: cell-based
[7] = molecular target: T2, Peroxisome proliferator-activated receptor gamma (Homo sapiens); test: Transactivation of PPARgamma (unknown origin) expressed in HEK293A cells at IC50 after 16 to 18 hrs by luciferase reporter assay; type: cell-based; conditions: HEK293-A

Compound | fold change (FC) [1] | inhibition [2] | IC50 [3] [µM] | Activity [4] | Activity [5] | inhibition [6] | Activity [7]
CC(C)(Oc1ccc(Cl)cc1)C(=O)NS(=O)(=O)c1ccccc1 | 0.47 |  | 0.65 |  |  |  | 
CC(C)(Oc1ccc(CCNC(=O)c2ccc(Cl)cc2)cc1)C(=O)NS(=O)(=O)c1ccccc1 | 0.28 |  | 0.8 |  |  |  | 
Cc1ccc(C)c(OCCCC(C)(C)C(=O)NS(=O)(=O)c2ccccc2)c1 | 0.05 |  | 8.8 |  |  |  | 
O=C(NS(=O)(=O)c1ccc(Cl)cc1)C(Sc1nc2cc(Cl)ccc2s1)c1ccccc1 (stereo not given) | 0.9 |  |  | inactive |  |  | Active
O=C(NS(=O)(=O)c1ccc([N+](=O)[O-])cc1)C(Sc1nc2cc(Cl)ccc2s1)c1ccccc1 (stereo not given) | 0.22 | Active | 0.82 | inactive | inactive | Active | 
CC(C)(Oc1ccc(C(=O)c2ccc(Cl)cc2)cc1)C(=O)NS(=O)(=O)c1ccccc1 | 0.08 |  | 7.65 |  |  |  | 

Second part, the compound after the results:

fold change (FC) [1] | inhibition [2] | IC50 [3] [µM] | Activity [4] | Activity [5] | inhibition [6] | Activity [7] | Compound
0.05 | Active | 4.5 | inactive |  |  |  | CCCC(Sc1nc2cc(Cl)ccc2s1)C(=O)NS(=O)(=O)c1ccc(NC(=O)c2ccccc2)cc1 (stereo not given)
0.2 | Active | 108 | inactive |  |  |  | CCCC(Sc1nc2cc(Cl)ccc2s1)C(=O)NS(=O)(=O)c1ccc(NC(C)=O)cc1 (stereo not given)
0.03 | Active | 0.85 | inactive | inactive | Active |  | CCCC(Sc1nc2cc(Cl)ccc2s1)C(=O)NS(=O)(=O)c1ccc([N+](=O)[O-])cc1 (stereo not given)
< 0.01 | Active | 0.68 | inactive | inactive | Active |  | CCCC(Sc1nc2cc(Cl)ccc2s1)C(=O)NS(=O)(=O)c1ccc(OC)cc1 (stereo not given)
< 0.01 | Active | 4.6 | inactive |  |  |  | CCCC(Sc1nc2cc(Cl)ccc2s1)C(=O)NS(=O)(=O)c1ccc(C)cc1 (stereo not given)
0.04 | Active | 6.86 | inactive |  |  |  | CCCC(Sc1nc2cc(Cl)ccc2s1)C(=O)NS(=O)(=O)c1ccc(Cl)cc1 (stereo not given)
